Key:
[1] = target: Sodium-dependent serotonin transporter (Rattus norvegicus, UniProt P31652); test: Inhibition of [125I]RTI-55 binding to Serotonin transporter of rat caudate membranes; assay type: cell membranes, Membrane
[2] = target: Sodium-dependent dopamine transporter (Rattus norvegicus, UniProt P23977); test: Displacement of [125I]RTI-55 from Dopamine transporter of rat caudate membranes; assay type: cell membranes, Membrane
Chain of Sodium-dependent dopamine transporter (P23977 whole entry): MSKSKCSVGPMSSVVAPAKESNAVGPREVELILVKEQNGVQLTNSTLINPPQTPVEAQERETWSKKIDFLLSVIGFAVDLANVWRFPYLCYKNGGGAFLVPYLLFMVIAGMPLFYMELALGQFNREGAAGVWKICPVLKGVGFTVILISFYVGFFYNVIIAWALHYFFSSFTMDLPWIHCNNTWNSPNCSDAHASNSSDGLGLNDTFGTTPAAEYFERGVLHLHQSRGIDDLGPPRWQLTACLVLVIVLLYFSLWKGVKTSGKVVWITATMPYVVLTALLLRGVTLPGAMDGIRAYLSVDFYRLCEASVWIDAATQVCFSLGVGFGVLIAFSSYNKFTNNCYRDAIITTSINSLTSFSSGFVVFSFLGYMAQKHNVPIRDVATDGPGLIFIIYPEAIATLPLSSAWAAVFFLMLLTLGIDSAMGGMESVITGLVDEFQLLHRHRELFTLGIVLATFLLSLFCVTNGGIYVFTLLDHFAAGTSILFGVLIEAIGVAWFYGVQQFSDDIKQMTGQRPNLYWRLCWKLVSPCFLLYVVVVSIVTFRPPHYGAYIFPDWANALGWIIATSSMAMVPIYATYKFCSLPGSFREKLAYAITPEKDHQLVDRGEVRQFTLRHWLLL

Chain of Sodium-dependent serotonin transporter (P31652 whole entry): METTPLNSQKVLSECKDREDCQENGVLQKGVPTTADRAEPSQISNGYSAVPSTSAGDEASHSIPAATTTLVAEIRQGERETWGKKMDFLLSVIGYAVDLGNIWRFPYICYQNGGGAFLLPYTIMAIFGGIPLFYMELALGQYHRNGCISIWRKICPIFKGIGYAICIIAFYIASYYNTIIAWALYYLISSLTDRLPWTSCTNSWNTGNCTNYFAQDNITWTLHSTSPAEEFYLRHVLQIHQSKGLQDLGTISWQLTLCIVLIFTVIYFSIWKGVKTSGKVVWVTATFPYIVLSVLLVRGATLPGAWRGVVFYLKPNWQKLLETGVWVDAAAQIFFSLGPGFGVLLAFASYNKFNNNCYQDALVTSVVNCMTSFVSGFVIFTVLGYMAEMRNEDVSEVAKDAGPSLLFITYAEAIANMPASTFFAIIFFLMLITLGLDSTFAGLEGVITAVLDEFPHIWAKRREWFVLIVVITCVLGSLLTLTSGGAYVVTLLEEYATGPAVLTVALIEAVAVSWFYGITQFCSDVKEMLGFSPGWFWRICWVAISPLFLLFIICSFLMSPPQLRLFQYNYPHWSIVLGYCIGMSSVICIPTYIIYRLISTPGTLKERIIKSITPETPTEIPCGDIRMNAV

CN(C)CCCOc1nc(-c2ccccc2)nc2ccccc12
Ki [1]: > 10 µM

c1ccc(-c2nc(NCC(c3ccccc3)c3ccccc3)c3ccccc3n2)cc1
Ki [2]: 5.4 µM | Ki [1]: > 10 µM

C[C@@H](Nc1nc(-c2ccccc2)nc2ccccc12)c1ccccc1
Ki [2]: 6.1 µM | Ki [1]: > 10 µM

CN(C)CCCNc1nc(-c2ccccc2)nc2ccccc12
Ki [2]: > 10 µM | Ki [1]: > 10 µM

c1ccc(-c2nc(SC(c3ccccc3)c3ccccc3)c3ccccc3n2)cc1
Ki [2]: > 10 µM | Ki [1]: > 10 µM

c1ccc(-c2nc(NCCC(c3ccccc3)c3ccccc3)c3ccccc3n2)cc1
Ki [2]: > 10 µM | Ki [1]: > 10 µM

CN1C2CCC1CC(Oc1nc(-c3ccccc3)nc3ccccc13)C2 (stereo not drawn)
Ki [2]: 5.1 µM | Ki [1]: 5.1 µM

CN1CCC(Oc2nc(-c3ccccc3)nc3ccccc23)CC1
Ki [2]: 9.1 µM | Ki [1]: > 10 µM

C[C@H](Nc1nc(-c2ccccc2)nc2ccccc12)c1ccccc1
Ki [2]: 1.8 µM | Ki [1]: > 10 µM

c1ccc(CNc2nc(-c3ccccc3)nc3ccccc23)cc1
Ki [2]: 7.9 µM | Ki [1]: > 10 µM

c1ccc(-c2nc(NC(c3ccccc3)c3ccccc3)c3ccccc3n2)cc1
Ki [2]: 0.53 µM | Ki [1]: > 10 µM

CN(C)CCCSc1nc(-c2ccccc2)nc2ccccc12
Ki [2]: 6.1 µM | Ki [1]: 9.6 µM

From ChEMBL document CHEMBL1134874, “Identification of a novel partial inhibitor of dopamine transporter among 4-substituted 2-phenylquinazolines” (Bioorg Med Chem Lett, 2002)
